Assay results reported in BigSolDB 2.1.

CC(=O)Oc1ccccc1C(=O)O
solubility (mole fraction)
Settings	283.15 K	288.15 K	293.15 K	298.15 K	303.15 K	308.15 K	313.15 K	318.15 K	323.15 K
in acetone	0.0629	0.0733	0.0821	0.0931	0.105	0.113	0.126	0.138	0.157
in ethanol	0.0334	0.0426	0.0515	0.0614	0.074	0.0876	0.102	0.122	0.141
in ethyl acetate	0.0267	0.0314	0.0361	0.0413	0.0471	0.0543	0.0651	0.0738	0.0849
in n-propanol	0.0254	0.0316	0.037	0.0473	0.0576	0.0687	0.0816	0.0971	0.118
